This experiment concerns SARS-CoV-2. The experiment can be described thus: microbe, parasite or virus in culture. Format: cell-based. The note with it: Severe acute respiratory syndrome coronavirus 2, VeroE6/TMPRSS2; read-out: EC50 against all tested SARS-CoV-2 variants.

SMILES strings stand for the structures.

As usually defined, the EC50 is the concentration needed to bring the measured effect to its halfway point.

As for `Cn1cnc(Cn2c(=O)[nH]/c(=N\c3cc4cn(C)nc4cc3Cl)n(Cc3cc(F)c(F)cc3F)c2=O)n1` [Compound 3, (6E)-6-[(6-Chloro-2-methyl-2H-indazol-5-yl)imino]-3-[(1-methyl-1H-1,2,4-triazol-3-yl)methyl]-1-(2,4,5-trifluorobenzyl)-1,3,5-triazinane-2,4-dione], the EC50 lay in the range of 290 to 500 nM.

The values above are taken from paper PMC8982737, “Discovery of S-217622, a Noncovalent Oral SARS-CoV-2 3CL Protease Inhibitor Clinical Candidate for Treating COVID-19” (Journal of Medicinal Chemistry, 2022).
